Measured values: patent publication US20130012479A1, “POLYMORPHS OF 6-(PIPERIDIN-4-YLOXY)-2H-ISOQUINOLIN-1-ONE HYDROCHLORIDE” (SANOFI, priority 2011, published 2013)
“Also recorded” adds a separate entry of the source. Counter-ions that a name gives are not always drawn. Blank lines part the entries; values can stand above or below the compound they belong to.

Legend:
Format in all cases: physicochemical
[1] = Dynamic vapor sorption (DVS) water vapor sorption and desorption isotherms; details: 25° C.
Procedure: Moreover, the dihydrate may also be characterized by its DVS (dynamic vapor sorption) water vapor sorption and desorption isotherms measured at 25° C. as shown in FIG. 3. Before starting the sorption cycle the dihydrate sample is treated with dry nitrogen gas resulting in a transformation into phase 2 as shown by humidity resolved XRPD. […] A weight loss starts below 20% relative humidity and becomes strong below 10%, especially below 5%. The change in mass at low relative humidity is completely reversible and when the humidity increases again, the rehydration proceeds rapidly with small samples. However, for bulk samples rehydration of over-dried samples can take considerably longer and rehydration may require several days. Almost identical water sorption and desorption isotherms are observed at 40° C.
Moreover, phase 3 may also be characterized by its DVS (dynamic vapor sorption) water vapor sorption and desorption isotherms measured at 25° C. […] With decreasing humidity the dihydrate converts back at low humidity (below about 10% r.h.) into phase 2 (cycle 1, desorption). Phase 2 then converts into the dihydrate with increasing humidity and along the same isotherm it converts back with decreasing humidity into polymorph 2 (cycle 2, see also FIG. 3)
Moisture sorption/desorption isotherms were recorded on a DVS-1 from Surface Measurement Systems. […] Typical total measurement times for both cycles are about 20-30 hours.

[2] = Temperature-resolved XRPD, DSC and TGA on heating; details: for solid-solid transition prior to melting: on heating
Procedure: In this temperature range, transformation to phase 3 was observed as determined by XRPD.
(§1) All X-ray powder diffraction was performed with Stoe Stadi-P transmission diffractometers using CuKα1 radiation (Lambda is 1.54060 Angström). For room temperature powder diffraction, linear position sensitive detectors were used while for temperature-resolved XRPD image plate position sensitive detectors (IP-PSDs) were used. Unless stated otherwise, X-ray powder diffraction was performed at room temperature. Dry samples were investigated in a flat preparation whereas suspensions were investigated in quartz glass capillaries. The measured data were evaluated and plotted with the Software WinXPOW V2.12.
The thermogravimetric analyses were performed with a METTLER TGA851e (module TGA/SDTA851e/SF1100/042). 100 μl Al crucibles sealed with lid were used. The sample changer punches a pinhole into the lid immediately before the start of the measurement. The oven cell is purged with a nitrogen gas flow of about 50 mL/min. The measurements typically start with a hold time of about 25 min at 25° C., followed by heating of the sample with a rate of 10°/min.
All DSC measurements were performed with a Mettler DSC822e (module DSC822e/700/109/414935/0025). If not indicated differently, 40 μl Al crucibles with sealed lid and hole were used. All measurements were carried out in a nitrogen gas flow of 50 mL/minute. The heating rate was 10° C./minute unless indicated otherwise. Temperature and heat flow were calibrated via the melting peak of an indium reference

[3] = Maturation experiments (slurry conversion) of suspensions; details: for solid phase after maturation: 20° C., 35 days; for relative stability of the phase from maturation experiments: suspensions of phase mixtures in dry organic solvents, temperature range from 0 to 40° C.
Procedure: By maturation experiments (slurry conversion) at the given temperature the relative stability of the polymorphs of compound (I) and the hydrate was investigated.
The following maturation experiment was performed by stirring the suspension under the specified conditions, starting from the dihydrate. The sample was investigated by XRPD in suspension, after vacuum filtration as well as after drying over night at 40° C. in vacuum (<50 mbar). The isolated material was also investigated by DSC and TGA.
a) Maturation of 0.210 g dihydrate of compound (I) in 0.4 mL of water at 20° C. for 35 days. Similar, maturation of the dihydrate was done in water/methanol (vol/vol 1:1) and in water/ethanol (vol/vol 1:1).
The following maturation experiments were performed by stirring the suspension under the specified conditions and isolating the solid by vacuum filtration, starting from dihydrate of compound (I). The sample was investigated by XRPD in suspension, after vacuum filtration as well as after drying. The isolated material was also investigated by DSC and TGA.
(b) Maturation of 0.203 g of dihydrate of compound (I) in 1.2 mL of methanol at 20° C. for 35 days. (c) Maturation was also done as in (b) by using ethanol, 1-propanol or 2-propanol.
The following maturation experiments of suspensions of phase mixtures of the dihydrate of compound (I) and phases consisting of polymorphs 1, 3 and 4 were performed at 0, 20 and 40° C. The product was isolated by vacuum filtration and analyzed after drying.
e) Maturation of a mixture of 0.3 mg phase 1, 23.9 mg phase 3, 29.9 mg phase 4 and 27.9 mg of the dihydrate in 0.7 mL 2-propanol at 0° C. for 2 weeks. f) Maturation of a mixture of 0.3 mg phase 1, 27.2 mg phase 3, 18.1 mg phase 4 and 29.6 mg of the dihydrate in 2.0 mL 2-butanol at 0° C. for 2 weeks. g) Similar experiments as in e) and f) were done with corresponding mixtures of phase 1, phase 3, phase 4 and the dihydrate in 2-propanol and 2-butanol at 20° C. and at 40° C., respectively

[4] = Storage under usual storage conditions (25° C./65% relative humidity)
Excerpt: Moreover, the corresponding amorphous material is hygroscopic and the water content varies much stronger with the relative humidity compared to the dihydrate. This water uptake and variability in water content makes precise dosing during drug product manufacturing difficult. […] Accordingly, the crystalline dihydrate is therefore the preferred solid form for drug product manufacturing.

[5] = Humidity-controlled (humidity-resolved) XRPD in a humidity chamber; details: for time until transformation into the dihydrate at 95% relative humidity: sample held at 95% r.h.
Procedure: When humidity-controlled XRPD was performed at 25 and 40° C., widely identical results were obtained.
Exposure to elevated humidity causes transformation to the dihydrate as determined with humidity-controlled XRPD performed at 25° C. […] Phase 1 transformed into the dihydrate after about 15 min at 95%, which in turn changed to phase 2 after about 40 min at 2% r.h.
Exposure to elevated humidity causes transformation to the dihydrate as determined by humidity-controlled XRPD at 25° C. […] As a result phase 3 transformed into the hydrate after about 30 min at 95%, which in turn changed to phase 2 after about 30 min at 2% r.h.
Exposure to elevated humidity causes transformation to the dihydrate as determined by humidity-controlled XRPD. […] As a result phase 4 transformed into the dihydrate after about 15 min at 95%, which in turn changed to phase 2 after about 20 min at 2% r.h.
as §1

[6] = Drying of the dihydrate, retention of crystal structure; details: dihydrate dried
Excerpt: In a further embodiment of the hydrate the water content is 11.4% (w/w). In a further embodiment the hydrate contains 2.0 molecules water per molecule (I). Although the hydrate phase typically contains about 10-12.5% water it can also occur with lower water content. The crystal structure of the hydrate remains even if the dihydrate is dried and the remaining water content is down to about 3%. Water uptake is reversible if humidity in the environment is raised again. The water content in the isolated product depends on the drying conditions used during work up of the hydrate after crystallisation.

[7] = Stability of the solvate outside the mother liquor; details: in the presence of humidity starts to transform to the hydrate
Excerpt: Thus, a further aspect of the present invention relates to the use of the methyl acetate solvate of compound (I) for the production of the hydrate, for example by subjecting it to conditions, such as an elevated temperature and/or humidity which facilitate the loss of methyl acetate and attracting water.

[8] = Suspension in water, phase transformation
Procedure: (§2) Also storage of phase 3 at 20° C. and 75% relative humidity caused complete conversion to the dihydrate within 3 weeks. The rate of conversion correlates with the relative humidity. When suspended in water, complete transformation into the dihydrate was observed almost immediately (<10 min).

[9] = Storage at 20° C. and 75% relative humidity
Procedure: Also storage of phase 1 at 20° C. and 75% relative humidity caused complete conversion to the dihydrate within 3 weeks. The rate of conversion correlates with the relative humidity.
as §2
Also storage of phase 4 at 20° C. and 75% relative humidity caused complete conversion to the dihydrate within 3 weeks. The rate of conversion apparently correlates with the relative humidity.

[10] = listed as phase 3, hydrochloride
[11] = listed as phase 1, hydrochloride
[12] = listed as phase 4, hydrochloride

SMILES: O=c1[nH]ccc2cc(OC3CCNCC3)ccc12 [amorphous material, 6-(Piperidin-4-yloxy)-2H-isoquinolin-1-one hydrochloride]
hygroscopicity / water content as a function of relative humidity ([1]; hydrochloride): hygroscopic

SMILES: O=c1[nH]ccc2cc(OC3CCNCC3)ccc12 [dihydrate, 6-(Piperidin-4-yloxy)-2H-isoquinolin-1-one hydrochloride dihydrate]
temperature below which the form is stable [2]: below 90 °C | temperature at which transformation to phase 3 starts ([2]; temperature-resolved XRPD, on heating with loss of water): about 90 °C | relative humidity below which the dihydrate converts into phase 2 ([1]; cycle 1, desorption): below 10% | relative humidity below which weight loss starts ([1]; desorption cycle): below 20% | hygroscopicity / water content as a function of relative humidity ([1]; hydrochloride dihydrate): quite constant water content | water content in the desorption cycle ([1]; relative humidities between 95% and 20%): almost constant | solid phase after maturation ([3]; 2-butanol, after drying): Polymorph 4 was obtained | solid phase after maturation ([3]; methanol, ethanol, 1-propanol or 2-propanol): polymorph 3 was obtained | solid phase after maturation ([3]; water, water/methanol (1:1) or water/ethanol (1:1)): remained as dihydrate | stability under usual storage conditions [4]: stable for more than two years | decomposition on storage ([4]; more than two years): no detectable decomposition | relative humidity at which reversible transformation into phase 2 was observed ([5]; 25 and 40° C.): 2% | time until the dihydrate changed to phase 2 at 2% r.h. ([5]; sample held at 2% r.h., hydrochloride dihydrate): about 30 min | remaining water content down to which the crystal structure of the hydrate remains [6]: about 3%

SMILES: O=c1[nH]ccc2cc(OC3CCNCC3)ccc12 [polymorph 2, 6-(Piperidin-4-yloxy)-2H-isoquinolin-1-one hydrochloride]
solid-solid transition prior to melting ([2]; listed as phase 2, hydrochloride): melted without preceding solid-solid transitions

Now from value to compound, other results behind:

stability of the solvate outside the mother liquor [7]: only moderately stable
SMILES: O=c1[nH]ccc2cc(OC3CCNCC3)ccc12 [methyl acetate solvate, 6-(Piperidin-4-yloxy)-2H-isoquinolin-1-one hydrochloride]

relative humidity above which the phase changed into the dihydrate ([1]; cycle 1, sorption): above 80% | relative stability at low relative humidity ([3]; at and around room temperature, less than about 10% relative humidity): the most stable phase | time to complete transformation into the dihydrate when suspended in water [8]: < 10 min | time until transformation into the dihydrate at 95% relative humidity [5, 10]: about 30 min
SMILES: O=c1[nH]ccc2cc(OC3CCNCC3)ccc12 [polymorph 3, 6-(Piperidin-4-yloxy)-2H-isoquinolin-1-one hydrochloride]
solid-solid transition prior to melting [2, 10]: melted without preceding solid-solid transitions; also recorded: No transformation into another crystalline phase | relative stability of the phase from maturation experiments [3, 10]: the most stable anhydrous phase; also recorded: thermodynamically most stable anhydrous form

stability of the solvate on heating [2]: relatively stable
SMILES: O=c1[nH]ccc2cc(OC3CCNCC3)ccc12 [1,4-dioxane solvate, 6-(Piperidin-4-yloxy)-2H-isoquinolin-1-one hydrochloride×0.5 1,4-dioxane solvate]

relative stability of the phase from maturation experiments [3, 11]: only a metastable polymorph | time until transformation into the dihydrate at 95% relative humidity ([5]; listed as Phase 1, hydrochloride): about 15 min
SMILES: O=c1[nH]ccc2cc(OC3CCNCC3)ccc12 [polymorph 1, 6-(Piperidin-4-yloxy)-2H-isoquinolin-1-one hydrochloride]
solid-solid transition prior to melting [2, 11]: melted without preceding solid-solid transitions; also recorded: No transformation into another crystalline phase

relative stability of the phase from maturation experiments [3, 12]: only a metastable one | time to complete conversion to the dihydrate on storage [9]: ≤ 3 weeks | time until transformation into the dihydrate at 95% relative humidity [5, 12]: about 15 min
SMILES: O=c1[nH]ccc2cc(OC3CCNCC3)ccc12 [polymorph 4, 6-(Piperidin-4-yloxy)-2H-isoquinolin-1-one hydrochloride]
solid-solid transition prior to melting [2, 12]: No transformation into another crystalline phase 1, 2 or 3; also recorded: melted without preceding solid-solid transitions
